From patent US20250114345A1, “COMPOUNDS AND COMPOSITIONS AS CBP/P300 DEGRADERS AND USES THEREOF” (Oncopia Therapeutics, Inc. d/b/a/ SK Life Science Labs, priority 2023, published 2025) come the findings set out here.

In general, Dmax refers to the largest share of the target that was removed. In general, DC50 refers to the concentration giving 50% degradation. High values mean a less potent degrader, low ones a more potent degrader.

In this assay the target is T1, p300 (Homo sapiens, UniProt Q09472).
T1 construct: host or cells: A549 P300 HiBit cells
T1 sequence (Q09472 whole entry): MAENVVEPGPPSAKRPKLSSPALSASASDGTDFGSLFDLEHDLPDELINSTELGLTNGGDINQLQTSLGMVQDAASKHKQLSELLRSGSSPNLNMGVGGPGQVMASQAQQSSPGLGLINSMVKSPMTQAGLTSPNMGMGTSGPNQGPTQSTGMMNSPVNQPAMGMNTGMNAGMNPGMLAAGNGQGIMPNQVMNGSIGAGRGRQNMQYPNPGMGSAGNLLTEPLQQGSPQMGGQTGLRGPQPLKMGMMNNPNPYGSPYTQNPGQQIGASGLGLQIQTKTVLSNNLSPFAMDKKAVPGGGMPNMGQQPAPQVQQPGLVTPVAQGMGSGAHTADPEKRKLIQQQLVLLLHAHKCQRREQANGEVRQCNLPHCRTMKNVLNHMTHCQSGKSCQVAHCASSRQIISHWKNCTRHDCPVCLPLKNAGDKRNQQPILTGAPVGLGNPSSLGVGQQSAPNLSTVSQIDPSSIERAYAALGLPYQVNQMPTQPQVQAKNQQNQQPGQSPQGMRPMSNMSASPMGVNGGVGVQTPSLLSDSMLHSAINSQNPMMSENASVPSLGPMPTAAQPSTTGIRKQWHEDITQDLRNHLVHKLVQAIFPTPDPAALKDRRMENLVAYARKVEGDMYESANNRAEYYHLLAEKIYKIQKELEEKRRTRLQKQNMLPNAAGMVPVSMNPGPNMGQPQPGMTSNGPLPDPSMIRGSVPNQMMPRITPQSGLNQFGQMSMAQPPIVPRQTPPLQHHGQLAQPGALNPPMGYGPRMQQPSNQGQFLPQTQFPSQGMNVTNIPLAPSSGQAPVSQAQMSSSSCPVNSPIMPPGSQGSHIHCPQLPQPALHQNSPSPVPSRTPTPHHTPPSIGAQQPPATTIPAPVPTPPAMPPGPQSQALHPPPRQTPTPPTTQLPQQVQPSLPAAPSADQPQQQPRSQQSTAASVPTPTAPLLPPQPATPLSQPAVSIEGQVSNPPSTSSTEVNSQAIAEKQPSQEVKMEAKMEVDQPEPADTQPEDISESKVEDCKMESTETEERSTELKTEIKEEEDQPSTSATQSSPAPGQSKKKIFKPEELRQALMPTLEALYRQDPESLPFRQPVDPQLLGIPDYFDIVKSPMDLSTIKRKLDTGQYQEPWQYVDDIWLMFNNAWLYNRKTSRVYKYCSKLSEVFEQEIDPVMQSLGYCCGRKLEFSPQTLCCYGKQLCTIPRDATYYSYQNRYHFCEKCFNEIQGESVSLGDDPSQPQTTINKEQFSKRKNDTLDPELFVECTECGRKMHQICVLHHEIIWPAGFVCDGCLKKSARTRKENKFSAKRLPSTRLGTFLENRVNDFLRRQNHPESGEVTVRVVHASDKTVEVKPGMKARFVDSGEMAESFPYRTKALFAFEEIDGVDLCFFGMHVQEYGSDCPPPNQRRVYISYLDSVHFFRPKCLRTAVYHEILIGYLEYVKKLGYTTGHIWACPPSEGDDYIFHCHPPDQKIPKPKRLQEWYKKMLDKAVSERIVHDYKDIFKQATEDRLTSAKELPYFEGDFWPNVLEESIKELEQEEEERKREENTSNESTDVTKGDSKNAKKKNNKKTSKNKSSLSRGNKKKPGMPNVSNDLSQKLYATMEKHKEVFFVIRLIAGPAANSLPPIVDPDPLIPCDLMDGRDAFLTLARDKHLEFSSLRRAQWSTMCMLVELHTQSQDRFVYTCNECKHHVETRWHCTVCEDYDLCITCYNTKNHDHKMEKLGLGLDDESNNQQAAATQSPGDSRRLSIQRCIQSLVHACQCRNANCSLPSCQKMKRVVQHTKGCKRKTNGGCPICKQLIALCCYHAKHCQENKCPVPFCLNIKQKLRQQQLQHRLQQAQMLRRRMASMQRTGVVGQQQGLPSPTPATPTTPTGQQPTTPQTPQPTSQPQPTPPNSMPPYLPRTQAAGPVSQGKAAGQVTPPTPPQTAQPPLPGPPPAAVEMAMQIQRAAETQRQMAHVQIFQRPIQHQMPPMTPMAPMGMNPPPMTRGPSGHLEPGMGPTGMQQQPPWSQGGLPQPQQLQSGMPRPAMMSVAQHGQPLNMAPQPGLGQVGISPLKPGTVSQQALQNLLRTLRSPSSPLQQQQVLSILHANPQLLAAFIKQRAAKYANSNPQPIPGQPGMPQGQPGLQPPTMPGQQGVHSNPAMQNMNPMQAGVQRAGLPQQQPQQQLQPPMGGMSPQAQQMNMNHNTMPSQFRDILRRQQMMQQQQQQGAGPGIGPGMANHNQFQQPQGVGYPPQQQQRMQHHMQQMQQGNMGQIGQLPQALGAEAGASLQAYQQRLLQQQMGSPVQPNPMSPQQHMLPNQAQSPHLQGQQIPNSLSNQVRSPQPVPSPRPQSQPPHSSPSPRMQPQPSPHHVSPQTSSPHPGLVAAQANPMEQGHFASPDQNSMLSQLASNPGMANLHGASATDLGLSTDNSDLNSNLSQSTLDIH
Put plainly: P300 degradation, HiBit technology in A549 P300 HiBit cells (2 h). Particulars: 2 hrs post treatment; for Dmax: A549, A549 P300 HiBit cells; for DC50: A549 P300 HiBit cells. Format: cell-based. The procedure, abridged: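 A549 cells carrying HiBit-tagged p300 or CBP, seeded overnight at 37 °C/5% CO2, then treated with serial compound dilutions from 10 mM DMSO stocks. Incubation was 2 h for p300 and 24 h for CBP, followed by HiBit lytic detection reagent for 10 min at room temperature. Luminescence read gave degradation potency and Dmax.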
Background: With HiBiT, luminescence reflects the tagged protein that the partner subunit can reach.

For the molecule `CCC(=O)N1CCC(c2cc(N3CCCc4nc(-c5ccc(C(=O)NCC#Cc6ccc7occ(C8CCC(=O)NC8=O)c7c6)nc5)ncc43)c3cc(C)c(=O)n(C)c3c2)CC1` (stereo not drawn) [Example B52, 5-(5-(1,3-dimethyl-2-oxo-7-(1-propionyl-piperidin-4-yl)-1,2-dihydroquinolin-5-yl)-5,6,7,8-tetrahydropyrido[3,2-d]pyrimidin-2-yl)-N-(3-(3-(2,6-dioxopiperidin-3-yl)benzofuran-5-yl)prop-2-yn-1-yl)picolinamide], the maximal degradation (Dmax) was over 80% and the half-maximal degradation concentration (DC50) was under 1 nM.
`Cc1cc2c(N3CCN(C)c4nc(-c5ccc(C(=O)NCC#Cc6ccc7occ(C8CCC(=O)NC8=O)c7c6)nc5)ncc43)cccc2n(C)c1=O` (stereo not drawn) [Example B33, 5-(5-(1,3-dimethyl-2-oxo-1,2-dihydroquinolin-5-yl)-8-methyl-5,6,7,8-tetrahydropteridin-2-yl)-N-(3-(3-(2,6-dioxopiperidin-3-yl)benzofuran-5-yl)prop-2-yn-1-yl)picolinamide] yielded a maximal degradation (Dmax) of over 80% and a half-maximal degradation concentration (DC50) of 1 to 9.9 nM.
Consider `Cc1cc(-c2ncc(N(C)c3cc(C(C)C)c4c(c3)n(C)c(=O)n4C)cn2)cnc1C(=O)NCC#Cc1cc2c(C3CCC(=O)NC3=O)coc2cc1F` (stereo not drawn) [Example A235, N-(3-(3-(2,6-dioxo-piperidin-3-yl)-6-fluorobenzofuran-5-yl)prop-2-yn-1-yl)-5-(5-((7-isopropyl-1,3-dimethyl-2-oxo-2,3-dihydro-1H-benzo [d]imidazol-5-yl)(methyl)amino)pyrimidin-2-yl)-3-methylpicolinamide], for which the Dmax was over 80% and the 50% degradation concentration (DC50) fell in the range of 1 to 9.9 nM.
On the same counts, the results for `CC(C)c1cc(N2CCOc3cc(-c4ccc(C(=O)NCC#Cc5ccc6occ(C7CCC(=O)NC7=O)c6c5)nc4)c(C#N)cc32)cc2c1n(C)c(=O)n2C` (stereo not drawn) [Example A134, 5-(6-cyano-4-(7-iso-propyl-1,3-dimethyl-2-oxo-2,3-dihydro-1H-benzo[d]imidazol-5-yl)-3,4-dihydro-2H-benzo[b][1,4]oxazin-7-yl)-N-(3-(3-(2,6-dioxopiperidin-3-yl)benzofuran-5-yl)prop-2-yn-1-yl)picolinamide] are over 80% and 1 to 9.9 nM.
For the molecule `Cc1cc(N2CCCc3nc(-c4ccc(C(=O)NCC#Cc5ccc6occ(C7CCC(=O)NC7=O)c6c5)nc4)ncc32)c2cc(C)c(=O)n(C)c2c1` (stereo not drawn) [Example B151, N-(3-(3-(2,6-dioxopiperidin-3-yl)benzofuran-5-yl)prop-2-yn-1-yl)-5-(5-(1,3,7-trimethyl-2-oxo-1,2-dihydroquinolin-5-yl)-5,6,7,8-tetrahydro-pyrido[3,2-d]pyrimidin-2-yl)picolinamide], the Dmax was over 80% and the DC50 was 1 to 9.9 nM.
Regarding `Cc1cc2c(N3CCCc4nc(-c5ccc6c(c5)C(=O)N(CC#Cc5ccc7occ(C8CCC(=O)NC8=O)c7c5)C6)ncc43)cc(C3CCOCC3)cc2n(C)c1=O` (stereo not drawn) [Example B44, 3-(5-(3-(6-(5-(1,3-dimethyl-2-oxo-7-(tetrahydro-2H-pyran-4-yl)-1,2-dihydroquinolin-5-yl)-5,6,7,8-tetrahydropyrido[3,2-d]pyrimidin-2-yl)-1-oxoisoindolin-2-yl)prop-1-yn-1-yl)benzofuran-3-yl)piperidine-2,6-dione], the Dmax lay in the range of 20 to 39% and the DC50 fell in the range of 1 to 9.9 nM.
As for `CCn1c(=O)n(C)c2ccc(-c3cccc4cc(-c5ccc(C(=O)NCC#Cc6cc7c(C8CCC(=O)NC8=O)cccc7o6)nc5)ncc34)cc21` (stereo not drawn) [Example A267, N-(3-(4-(2,6-dioxo-piperidin-3-yl)benzofuran-2-yl)prop-2-yn-1-yl)-5-(8-(3-ethyl-1-methyl-2-oxo-2,3-dihydro-1H-benzo [d]imidazol-5-yl)isoquinolin-3-yl)picolinamide], the Dmax was over 80% and the 50% degradation concentration (DC50) was in the range of 1 to 9.9 nM.
On the same counts, the results for `Cn1c(=O)n(C)c2c(N3CC4CCC(C3)O4)nc(-c3cccc4cc(-c5ccc(C(=O)NCC#Cc6cc7c(C8CCC(=O)NC8=O)cccc7o6)nc5)ncc34)cc21` (stereo not drawn) [Example A253, 5-(8-(4-(8-oxa-3-azabicyclo[3.2.1]octan-3-yl)-1,3-dimethyl-2-oxo-2,3-dihydro-1H-imidazo[4,5-c]pyridin-6-yl)isoquinolin-3-yl)-N-(3-(4-(2,6-dioxopiperidin-3-yl)benzofuran-2-yl)prop-2-yn-1-yl)picolinamide] are over 80% and under 1 nM.
`Cc1cc2c(N3CCCc4nc(-c5cnc(C(=O)NCC#Cc6ccc7occ(C8CCC(=O)NC8=O)c7c6)c(Cl)c5)ncc43)cccc2n(C)c1=O` (stereo not drawn) [Example B155, 3-chloro-5-(5-(1,3-dimethyl-2-oxo-1,2-dihydroquinolin-5-yl)-5,6,7,8-tetrahydro-pyrido[3,2-d]pyrimidin-2-yl)-N-(3-(3-(2,6-dioxopiperidin-3-yl)benzofuran-5-yl)prop-2-yn-1-yl)picolinamide] returned a Dmax of over 80% and a half-maximal degradation concentration (DC50) of 1 to 9.9 nM.
Regarding `Cc1cc(-c2ccc(N(C)c3cc(C(C)C)c4c(c3)n(C)c(=O)n4C)cc2C(F)(F)F)cnc1C(=O)NCC#Cc1cccc(NC2CCC(=O)NC2=O)c1` (stereo not drawn) [Example A48, N-(3-(3-((2,6-dioxopiperidin-3-yl)amino)phenyl)prop-2-yn-1-yl)-5-(4-((7-isopropyl-1,3-dimethyl-2-oxo-2,3-dihydro-1H-benzo [d]imidazol-5-yl)(methyl)amino)-2-(trifluoromethyl)phenyl)-3-methylpicolinamide], the Dmax was 60 to 79% and the 50% degradation concentration (DC50) was in the range of 10 to 99 nM.
Regarding `Cc1cc(-c2cnc(N(C)c3cc(C4CCOCC4)c4c(c3)n(C)c(=O)n4C)cn2)cnc1C(=O)NCC#Cc1cc2c(C3CCC(=O)NC3=O)nccc2o1` (stereo not drawn) [Example A176, 5-(5-((1,3-dimethyl-2-oxo-7-(tetrahydro-2H-pyran-4-yl)-2,3-dihydro-1H-benzo[d]imidazol-5-yl)(methyl)amino)pyrazin-2-yl)-N-(3-(4-(2,6-dioxopiperidin-3-yl)furo[3,2-c]pyridin-2-yl)prop-2-yn-1-yl)-3-methylpicolinamide], the greatest degradation seen (Dmax) is over 80% and the half-maximal degradation concentration (DC50) lay within 10 to 99 nM.
On the same counts, the results for `Cn1c(=O)n(C)c2c(N3CC[Si](C)(C)CC3)nc(-c3cccc4cc(-c5ccc(C(=O)NCC#Cc6ccc7occ(C8CCC(=O)NC8=O)c7c6)nc5)ncc34)cc21` (stereo not drawn) [Example A118, 5-(8-(4-(4,4-dimethyl-1,4-azasilinan-1-yl)-1,3-dimethyl-2-oxo-2,3-dihydro-1H-imidazo[4,5-c]pyridin-6-yl)isoquinolin-3-yl)-N-(3-(3-(2,6-dioxopiperidin-3-yl)benzofuran-5-yl)prop-2-yn-1-yl)picolinamide] are 60 to 79% and 10 to 99 nM.
In turn, `CC(C)c1cc(-c2cccc3cc(-c4ccc(C(=O)NCC#Cc5nc6c(C7CCC(=O)NC7=O)cccc6n5C)nc4)ncc23)cc2c1n(C)c(=O)n2C` (stereo not drawn) [Example A186, N-(3-(4-(2,6-dioxo-piperidin-3-yl)-1-methyl-1H-benzo[d]imidazol-2-yl)prop-2-yn-1-yl)-5-(8-(7-iso-propyl-1,3-dimethyl-2-oxo-2,3-dihydro-1H-benzo[d]imidazol-5-yl)isoquinolin-3-yl)picolinamide] showed a Dmax of under 20% and a DC50 of over 1000 nM.
In turn, `CC(C)c1cc(-c2cccc3cc(-c4ccc(C(=O)NCC#Cc5ccc6c(C#N)nn(C7CCC(=O)NC7=O)c6c5)nc4)ncc23)cc2c1n(C)c(=O)n2C` (stereo not drawn) [Example A7, N-(3-(3-Cyano-1-(2,6-dioxopiperidin-3-yl)-1H-indazol-6-yl)prop-2-yn-1-yl)-5-(8-(7-isopropyl-1,3-dimethyl-2-oxo-2,3-dihydro-1H-benzo[d]imidazol-5-yl)isoquinolin-3-yl)picolinamide] gave a Dmax of over 80% and a DC50 of 10 to 99 nM.
`Cc1nc(-c2ncc(N(C)c3cc(C4CCOCC4)c4c(c3)n(C)c(=O)n4C)cn2)cnc1C(=O)NCC#Cc1cc2c(C3CCC(=O)NC3=O)cccc2o1` (stereo not drawn) [Example A187, 5-(5-((1,3-dimethyl-2-oxo-7-(tetrahydro-2H-pyran-4-yl)-2,3-dihydro-1H-benzo[d]imidazol-5-yl)(methyl)amino)pyrimidin-2-yl)-N-(3-(4-(2,6-dioxopiperidin-3-yl)benzofuran-2-yl)prop-2-yn-1-yl)-3-methylpyrazine-2-carboxamide] returned a Dmax of over 80% and a DC50 of 1 to 9.9 nM.
Molecule `Cc1cc2c(N3CCCc4nc(-c5ccc(C(=O)NCC#Cc6ccc7occ(C8CCC(=O)NC8=O)c7c6)nc5)ncc43)nc(C3CCOCC3)cc2n(C)c1=O` (stereo not drawn) [Example B70, 5-(5-(1,3-dimethyl-2-oxo-7-(tetrahydro-2H-pyran-4-yl)-1,2-dihydro-1,6-naphthyridin-5-yl)-5,6,7,8-tetrahydropyrido[3,2-d]pyrimidin-2-yl)-N-(3-(3-(2,6-dioxopiperidin-3-yl)benzofuran-5-yl)prop-2-yn-1-yl)picolinamide] registered a Dmax of 60 to 79% and a DC50 of 1 to 9.9 nM.
As to `Cc1cc2c(N3CCN(C)c4cc(-c5ccc(C(=O)NCC#Cc6ccc7occ(C8CCC(=O)NC8=O)c7c6)nc5)ncc43)cc(C3CCOCC3)cc2n(C)c1=O` (stereo not drawn) [Example B31, 5-(4-(1,3-dimethyl-2-oxo-7-(tetrahydro-2H-pyran-4-yl)-1,2-dihydroquinolin-5-yl)-1-methyl-1,2,3,4-tetrahydropyrido[3,4-b]pyrazin-7-yl)-N-(3-(3-(2,6-dioxopiperidin-3-yl)benzofuran-5-yl)prop-2-yn-1-yl) picolinamide], the maximal degradation (Dmax) is over 80% and the DC50 is under 1 nM.
In the case of `Cc1cc(-c2ccc(N(C)c3cc(C(C)C)c4c(c3)n(C)c(=O)n4C)cc2C(F)F)cnc1C(=O)NCC#Cc1cccc(NC2CCC(=O)NC2=O)c1` (stereo not drawn) [Example A41, 5-(2-(difluoromethyl)-4-((7-isopropyl-1,3-dimethyl-2-oxo-2,3-dihydro-1H-benzo[d]imidazol-5-yl) (methyl)amino)phenyl)-N-(3-(3-((2,6-dioxopiperidin-3-yl)amino)phenyl)-prop-2-yn-1-yl)-3-methylpicolinamide], the Dmax was over 80% and the half-maximal degradation concentration (DC50) lay in the range of 10 to 99 nM.
